Results taken from patent publication US20220204654A1, “CYCLODEXTRIN SUPRAMOLECULAR SCAFFOLDS AND USES THEREOF” (Massachusetts Institute of Technology, priority 2019, published 2022).

Key:
[1] = Isothermal titration calorimetry (ITC) glucose binding assay; details: ITC binding isotherm, read-out: binding affinity (Kd)
Procedure: Binding studies were then carried out using isothermal titration calorimetry (ITC) to measure thermodynamic properties during binding. ITC was chosen as the preferred method to confirm binding of glucose as this assay excludes the possibilities of any false positive data. The ITC based binding assay needed significant optimization with respect to macromolecule concentration, choice of buffer, ways of desalting, concentration of the glucose solution, etc.

[2] = unmodified cyclodextrin with adamantine (AD), comparison statement; cited from earlier work

| Kd [1] | Compound | dissociation constant [2] |
| --- | --- | --- |
| ~5 mM | OCC1O[C@@H]2O[C@@H]3C(CO)O[C@H](O[C@@H]4C5CSCc6ccc(cc6)-c6ccc(cc6)CSCC6O[C@H](O[C@@H]7C(CO)O[C@H](O[C@H]1C(O)C2O)C(O)C7O)C(O)C(O)[C@@H]6O[C@H]1OC(CO)[C@@H](O[C@H]2OC(CO)[C@@H](O[C@@H](O5)C(O)C4O)C(O)C2O)C(O)C1O)C(O)C3O (some centres unmarked) [CDC1] | – |
| – | cyclodextrin | micromolar range |
